From patent publication US12091402B2 (Avilar Therapeutics, Inc., priority 2021, dated 2024)

target: T1, ASGPR (Homo sapiens, UniProt P07306); experiment: Affinity to ASGPR by surface plasmon resonance (SPR)
T1 sequence (P07306 1-291): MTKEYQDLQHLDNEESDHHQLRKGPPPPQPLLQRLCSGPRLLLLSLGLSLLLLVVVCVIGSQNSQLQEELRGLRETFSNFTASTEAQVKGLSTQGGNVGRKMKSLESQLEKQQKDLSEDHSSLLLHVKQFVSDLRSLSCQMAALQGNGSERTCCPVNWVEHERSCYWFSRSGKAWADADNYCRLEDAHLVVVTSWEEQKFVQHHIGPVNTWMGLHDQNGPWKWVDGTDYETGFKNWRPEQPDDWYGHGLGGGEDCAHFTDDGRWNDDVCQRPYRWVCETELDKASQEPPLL

| SMILES | Kd |
| --- | --- |
| OC[C@H]1OCC(Nc2cc(C(F)(F)F)[nH]n2)[C@@H](O)[C@H]1O (stereo in doubt) [A93, (2R,3R,4R,5S)-2-(hydroxymethyl)-5-((5-(trifluoromethyl)-1H-pyrazol-3-yl)amino)tetrahydro-2H-pyran-3,4-diol] | > 100 nM |
| [N-]=[N+]=NCCCCCC(=O)NC(COCCC(=O)NCCOCCOCCOCCOC[C@H]1OC[C@H](Nc2cncc(C(F)(F)F)n2)[C@@H](O)[C@H]1O)COCCC(=O)NCCOCCOCCOCCOC[C@H]1OC[C@H](Nc2cncc(C(F)(F)F)n2)[C@@H](O)[C@H]1O [A2, 3,3′-((2-(6-azidohexanamido)propane-1,3-diyl)bis(oxy))bis(N-(1-((2R,3R,4R,5S)-3,4-dihydroxy-5-((6-(trifluoromethyl)pyrazin-2-yl)amino)tetrahydro-2H-pyran-2-yl)-2,5,8,11-tetraoxatridecan-13-yl)propanamide)] | < 100 nM |
| NC(COCCC(=O)NCCOCCOCCOCCOC[C@H]1OC[C@H](Nc2nccc(C(F)(F)F)n2)[C@@H](O)[C@H]1O)COCCC(=O)NCCOCCOCCOCCOC[C@H]1OC[C@H](Nc2nccc(C(F)(F)F)n2)[C@@H](O)[C@H]1O [A13, 3,3′-((2-aminopropane-1,3-diyl)bis(oxy))bis(N-(1-((2R,3R,4R,5S)-3,4-dihydroxy-5-((4-(trifluoromethyl)pyrimidin-2-yl)amino)tetrahydro-2H-pyran-2-yl)-2,5,8,11-tetraoxatridecan-13-yl)propanamide)] | < 100 nM |
| [N-]=[N+]=NCCCCCC(=O)NC(COCCC(=O)NCCOCCOCCOCCOC[C@@]12CO[C@@H](O1)[C@H](Nc1nc(Cl)ns1)[C@@H](O)[C@H]2O)COCCC(=O)NCCOCCOCCOCCOC[C@@]12CO[C@@H](O1)[C@H](Nc1nc(Cl)ns1)[C@@H](O)[C@H]2O [A14, 3,3′-((2-(6-azidohexanamido)propane-1,3-diyl)bis(oxy))bis(N-(1-((1S,2R,3R,4R,5S)-4-((3-chloro-1,2,4-thiadiazol-5-yl)amino)-2,3-dihydroxy-6,8-dioxabicyclo[3.2.1]octan-1-yl)-2,5,8,11-tetraoxatridecan-13-yl)propanamide)] | 100 to 500 nM |
| [N-]=[N+]=NCCCCCC(=O)NC(COCc1cn(CCOCCOCCOCCOC[C@H]2OC[C@H](Nc3nccc(C(F)(F)F)n3)[C@@H](O)[C@H]2O)nn1)COCc1cn(CCOCCOCCOCCOC[C@H]2OC[C@H](Nc3nccc(C(F)(F)F)n3)[C@@H](O)[C@H]2O)nn1 [A15, 6-azido-N-(1,3-bis((1-(1-((2R,3R,4R,5S)-3,4-dihydroxy-5-((4-(trifluoromethyl)pyrimidin-2-yl)amino)tetrahydro-2H-pyran-2-yl)-2,5,8,11-tetraoxatridecan-13-yl)-1H-1,2,3-triazol-4-yl)methoxy)propan-2-yl)hexanamide] | < 100 nM |
| O=C(O)COc1ccc(COC[C@H]2OC[C@H](Nc3cncc(C(F)(F)F)n3)[C@@H](O)[C@H]2O)cc1 [A19, 2-(4-((((2R,3R,4R,5S)-3,4-dihydroxy-5-((6-(trifluoromethyl)pyrazin-2-yl)amino)tetrahydro-2H-pyran-2-yl)methoxy)methyl)phenoxy)acetic acid] | < 100 nM |
| [N-]=[N+]=NCCOCCOCCOCCOC[C@H]1OC[C@H](Nc2cncc(C(F)(F)F)n2)[C@@H](O)[C@H]1O [A21, (2R,3R,4R,5S)-2-(13-azido-2,5,8,11-tetraoxatridecyl)-5-((6-(trifluoromethyl)pyrazin-2-yl)amino)tetrahydro-2H-pyran-3,4-diol] | 100 to 500 nM |
| O=C(O)COCCOCCOCC(=O)NC(COCCC(=O)NCCOCCOCCOCCOC[C@H]1OC[C@H](Nc2nccc(C(F)(F)F)n2)[C@@H](O)[C@H]1O)COCCC(=O)NCCOCCOCCOCCOC[C@H]1OC[C@H](Nc2nccc(C(F)(F)F)n2)[C@@H](O)[C@H]1O [A23, 1-((2R,3R,4R,5S)-3,4-dihydroxy-5-((4-(trifluoromethyl)pyrimidin-2-yl)amino)tetrahydro-2H-pyran-2-yl)-20-(1-((2R,3R,4R,5S)-3,4-dihydroxy-5-((4-(trifluoromethyl)pyrimidin-2-yl)amino)tetrahydro-2H-pyran-2-yl)-15-oxo-2,5,8,11,18-pentaoxa-14-azanonadecan-19-yl)-15,22-dioxo-2,5,8,11,18,24,27,30-octaoxa-14,21-diazadotriacontan-32-oic acid] | < 100 nM |
| O=C(O)COCCOCC(=O)NC(COCCC(=O)NCCOCCOCCOCCOC[C@H]1OC[C@H](Nc2nccc(C(F)(F)F)n2)[C@@H](O)[C@H]1O)COCCC(=O)NCCOCCOCCOCCOC[C@H]1OC[C@H](Nc2nccc(C(F)(F)F)n2)[C@@H](O)[C@H]1O [A24, 1-((2R,3R,4R,5S)-3,4-dihydroxy-5-((4-(trifluoromethyl)pyrimidin-2-yl)amino)tetrahydro-2H-pyran-2-yl)-20-(1-((2R,3R,4R,5S)-3,4-dihydroxy-5-((4-(trifluoromethyl)pyrimidin-2-yl)amino)tetrahydro-2H-pyran-2-yl)-15-oxo-2,5,8,11,18-pentaoxa-14-azanonadecan-19-yl)-15,22-dioxo-2,5,8,11,18,24,27-heptaoxa-14,21-diazanonacosan-29-oic acid] | < 100 nM |
| O=C(O)COCCOCCOCCOC[C@H]1OC[C@H](Nc2nccc(C(F)(F)F)n2)[C@@H](O)[C@H]1O [A25, 1-((2R,3R,4R,5S)-3,4-dihydroxy-5-((4-(trifluoromethyl)pyrimidin-2-yl)amino)tetrahydro-2H-pyran-2-yl)-2,5,8,11-tetraoxatridecan-13-oic acid] | 100 to 500 nM |
| O=C(O)COCCOCCOCC(=O)NC(COCCC(=O)NCCOCCOCCOCCOC[C@H]1OC[C@H](Nc2cncc(C(F)(F)F)n2)[C@@H](O)[C@H]1O)COCCC(=O)NCCOCCOCCOCCOC[C@H]1OC[C@H](Nc2cncc(C(F)(F)F)n2)[C@@H](O)[C@H]1O [A26, 1-((2R,3R,4R,5S)-3,4-dihydroxy-5-((6-(trifluoromethyl)pyrazin-2-yl)amino)tetrahydro-2H-pyran-2-yl)-20-(1-((2R,3R,4R,5S)-3,4-dihydroxy-5-((6-(trifluoromethyl)pyrazin-2-yl)amino)tetrahydro-2H-pyran-2-yl)-15-oxo-2,5,8,11,18-pentaoxa-14-azanonadecan-19-yl)-15,22-dioxo-2,5,8,11,18,24,27,30-octaoxa-14,21-diazadotriacontan-32-oic acid] | < 100 nM |
| O=C(O)CNC(COCCC(=O)NCCOCCOCCOCCOC[C@H]1OC[C@H](Nc2cncc(C(F)(F)F)n2)[C@@H](O)[C@H]1O)COCCC(=O)NCCOCCOCCOCCOC[C@H]1OC[C@H](Nc2cncc(C(F)(F)F)n2)[C@@H](O)[C@H]1O [A31, (1,39-bis((2R,3R,4R,5S)-3,4-dihydroxy-5-((6-(trifluoromethyl)pyrazin-2-yl)amino)tetrahydro-2H-pyran-2-yl)-15,25-dioxo-2,5,8,11,18,22,29,32,35,38-decaoxa-14,26-diazanonatriacontan-20-yl)glycine] | < 100 nM |
| O=C(O)CC(=O)NC[C@H]1OC[C@H](Nc2cncc(C(F)(F)F)n2)[C@@H](O)[C@H]1O [A32, 3-((((2R,3R,4R,5S)-3,4-dihydroxy-5-((6-(trifluoromethyl)pyrazin-2-yl)amino)tetrahydro-2H-pyran-2-yl)methyl)amino)-3-oxopropanoic acid] | < 1000 nM |
| O=C(O)CC(=O)NC(COCCC(=O)NC[C@H]1OC[C@H](Nc2cncc(C(F)(F)F)n2)[C@@H](O)[C@H]1O)COCCC(=O)NC[C@H]1OC[C@H](Nc2cncc(C(F)(F)F)n2)[C@@H](O)[C@H]1O [A33, 3-((1,15-bis((2R,3R,4R,5S)-3,4-dihydroxy-5-((6-(trifluoromethyl)pyrazin-2-yl)amino)tetrahydro-2H-pyran-2-yl)-3,13-dioxo-6,10-dioxa-2,14-diazapentadecan-8-yl)amino)-3-oxopropanoic acid] | < 100 nM |
| O=C(O)CC(=O)NC(COCCC(=O)NCCOCCOCCOCCOC[C@H]1OC[C@H](Nc2cncc(C(F)(F)F)n2)[C@@H](O)[C@H]1O)COCCC(=O)NCCOCCOCCOCCOC[C@H]1OC[C@H](Nc2cncc(C(F)(F)F)n2)[C@@H](O)[C@H]1O [A34, 1-((2R,3R,4R,5S)-3,4-dihydroxy-5-((6-(trifluoromethyl)pyrazin-2-yl)amino)tetrahydro-2H-pyran-2-yl)-20-(1-((2R,3R,4R,5S)-3,4-dihydroxy-5-((6-(trifluoromethyl)pyrazin-2-yl)amino)tetrahydro-2H-pyran-2-yl)-15-oxo-2,5,8,11,18-pentaoxa-14-azanonadecan-19-yl)-15,22-dioxo-2,5,8,11,18-pentaoxa-14,21-diazatetracosan-24-oic acid] | < 100 nM |
| OC[C@@]12CO[C@@H](O1)[C@H](Nc1ncc3c(C(F)(F)F)n[nH]c3n1)[C@@H](O)[C@H]2O [A37, (1S,2R,3R,4R,5S)-1-(hydroxymethyl)-4-((3-(trifluoromethyl)-1H-pyrazolo[3,4-d]pyrimidin-6-yl)amino)-6,8-dioxabicyclo[3.2.1]octane-2,3-diol] | > 20000 nM |
| Cc1cc(C#N)nc(N[C@H]2[C@H]3OC[C@](CO)(O3)[C@H](O)[C@@H]2O)n1 [A38, 2-[[(1S,2R,3R,4R,5S)-2,3-dihydroxy-1-(hydroxymethyl)-6,8-dioxabicyclo[3.2.1]octan-4-yl]amino]-6-methyl-pyrimidine-4-carbonitrile] | 1000 to 10000 nM |
| N#Cc1ccnnc1N[C@H]1[C@H]2OC[C@](CO)(O2)[C@H](O)[C@@H]1O [A39, 3-[[(1S,2R,3R,4R,5S)-2,3-dihydroxy-1-(hydroxymethyl)-6,8-dioxabicyclo[3.2.1]octan-4-yl]amino]pyridazine-4-carbonitrile] | 1000 to 10000 nM |
| N#Cc1cc(F)cnc1N[C@H]1[C@H]2OC[C@](CO)(O2)[C@H](O)[C@@H]1O [A40, 2-[[(1S,2R,3R,4R,5S)-2,3-dihydroxy-1-(hydroxymethyl)-6,8-dioxabicyclo[3.2.1]octan-4-yl]amino]-5-fluoro-pyridine-3-carbonitrile] | 1000 to 10000 nM |
| N#Cc1cc(N[C@H]2[C@H]3OC[C@](CO)(O3)[C@H](O)[C@@H]2O)cnc1Cl [A41, 2-chloro-5-[[(1S,2R,3R,4R,5S)-2,3-dihydroxy-1-(hydroxymethyl)-6,8-dioxabicyclo[3.2.1]octan-4-yl]amino]pyridine-3-carbonitrile] | 1000 to 10000 nM |
